Experiment [1] addresses T1, SK4 K+ channel (Homo sapiens, UniProt O15554). Put plainly: whole-cell patch clamp. The following applies: read-out: % inhibition at 0.5 μM. Type of experiment: cell-based.
Experiment [2] deals with T1, SK4 K+ channel. The experiment is classed as cell-based.

T1 sequence (O15554 whole entry): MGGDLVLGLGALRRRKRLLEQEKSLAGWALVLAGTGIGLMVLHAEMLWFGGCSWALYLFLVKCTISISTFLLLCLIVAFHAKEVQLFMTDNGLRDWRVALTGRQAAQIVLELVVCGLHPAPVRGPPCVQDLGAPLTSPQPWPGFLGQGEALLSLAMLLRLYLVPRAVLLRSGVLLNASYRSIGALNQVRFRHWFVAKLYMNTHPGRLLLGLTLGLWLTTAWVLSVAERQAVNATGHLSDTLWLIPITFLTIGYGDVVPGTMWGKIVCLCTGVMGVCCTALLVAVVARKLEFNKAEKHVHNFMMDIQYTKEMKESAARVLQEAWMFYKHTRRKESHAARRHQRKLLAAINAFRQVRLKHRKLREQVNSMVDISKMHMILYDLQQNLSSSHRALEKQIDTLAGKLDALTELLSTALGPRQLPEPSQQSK

On to `Clc1ccccc1C(c1ccccc1)(c1ccccc1)n1cccn1` [Tram-34], for which the inhibition at 0.5 µM at SK4 K+ channel [1] came to 86%.

On SK4 K+ channel [2], `CCCCCCCC(=O)OC[C@H](COP(=O)(O)O[C@@H]1[C@H](O)[C@H](O)[C@@H](OP(=O)(O)O)[C@H](OP(=O)(O)O)[C@H]1O)OC(=O)CCCCCCC` [diC8-PIP2] showed a concentration giving a half-maximal response (EC50) of 154 nM. That is a sub-micromolar value.

The values are drawn from paper PMC9407317 (Proceedings of the National Academy of Sciences of the …, 2022).
